Source: patent US20220339167A1, “HORMONE D (VITAMIN D) AND ITS DERIVATIVES FOR THE TREATMENT AND PREVENTION OF CANCER” (Industrial Technologies & Biotechnologies, priority 2019, published 2022)

What was measured:
nonmelanoma skin cancers = experiment: oral hormone D3 treatment of nonmelanoma skin cancers; type: in vivo; conditions: twelve nonmelanoma skin cancers; oral intake, 466 IU daily, between 6 and 8 months
cancer = conditions: cited from earlier work
[1] = test system: cancer or major cardiovascular events; conditions: 2000 IU daily for 5 years, initially healthy adults; cited from earlier work
colorectal cancer = conditions: 400 IU vitamin D3 with 1000 mg elemental calcium as calcium carbonate; average seven years follow-up; cited from earlier work
normal colonic mucosa = conditions: six months; vitamin D3 800 IU daily with calcium 2000 mg daily; cited from earlier work
HL-60 = conditions: cited from earlier work

Compound	outcome of treated nonmelanoma skin cancers (nonmelanoma skin cancers)	authors' conclusion on cancer prevention (cancer; high dose supplementation prescribed monthly)	participants with primary outcome of cancer (cancer; oral, initial bolus 200,000 IU then 100,000 IU monthly, up to 4 years, without calcium, placebo group 6.4%)	incidence of cancer or major cardiovascular events [1]	interaction between risk of colorectal cancer and supplementation (colorectal cancer)	apoptosis in normal colonic mucosa (molecular markers) (normal colonic mucosa)	cell differentiation (HL-60)
C=C1CC[C@H](O)C/C1=C/C=C1\CCC[C@]2(C)[C@@H]([C@H](C)CCCC(C)C)CC[C@@H]12 [hormone D3, cholecalciferol]	all of them were resolved completely	may no prevent cancer	6.5%	not reduce the incidence of cancer or major cardiovascular events	no significant interaction	may enhance apoptosis in normal colonic mucosa	
C=C1/C(=C\C=C2/CCC[C@]3(C)[C@@H]([C@H](C)CCCC(C)(C)O)CC[C@@H]23)C[C@@H](O)C[C@@H]1O [1α,25-dihydroxyvitamin D3]							induces HL-60 differentiation into macrophage-monocyte like cells
